# Columns and labels:
# [1] = system: ATM-Ser1981 foci in AT153LA cells (TGA A); assay: Irradiation-induced ATM-Ser1981 foci (IRIF) in AT153LA cells; as to IRIF (ATMs1981): key: the positive results on various assays are also summarized and labeled as '+'; assay type: cell-based, human; details: for IR-induced ATMs1981 foci formation, readthrough activity: A-T153LA cells (TGA), FIG. 13; for IRIF-ATM (%) (30 μM): Table 4, IR-induced ATMs1981 nuclear foci formation; for IRIF (ATMs1981): summary of positive results
# Experimental: To evaluate the function of RTC-induced ATM protein, we measured irradiation-induced foci (IRIF) formation of ATM-Ser1981 in the same ATI53LA cells (TGA A). […] The maximum IRIF induction achieved in A-T cells by 10 μM RTC#13 was ˜40% of wild-type level. As a positive readthrough control, 144 μM of G418 (100 μg/ml) was used to treat cells. Our previous studies had shown that, at this concentration, […] induced a maximum level of ATMs1981 IRIF (Lai et al., 2004).
# Immunostaining of nuclear foci of ATM-Ser1981 was performed as previously reported (Du et al., 2007). In brief, after being treated with compound for 4 d, cells were irradiated with 2 Gy and incubated at 37° C. for 30 min. The cells were dropped onto coverslips, fixed with 4% paraformaldehyde, and permeabilized. Coverslips were blocked for 1 h and incubated with mouse anti-ATM pSer1981 for 1 h (1:500; Rockland Immunochemicals, Inc). After a second blocking, cells were stained with FITC-conjugated anti-mouse IgG (1:150; Jackson ImmunoResearch Laboratories) for 1 h and mounted onto slides.
# Studies on IR-induced ATMs1981 foci formation by RTC#13 and derivatives 13a, 13b, 13d, 13e, 13f, 13g, 13h, 13i, 13j, and 13k in A-T153LA cells (TGA) were performed according to the procedures provided in Example 1.
# (§1) These two series, 13 and 15, were again tested for readthrough activity using the assay in which the ATM protein kinase activity was measured by functional flow cytometry (FC-ATM) (Table 4 and FIG. 12). A second assay, irradiation (1R)-induced ATMs1981 nuclear foci formation (IRIF-ATM), was also used to confirm the readthrough activity of these compounds (Table 4 and FIG. 13). Table 3 summarizes the data for the analogues 13 and 15 (at 30 μM), in which the groups R, R′, and X were varied. More detailed data are reported in FIG. 5 (for FC-ATM assay), and in FIG. 6 (for IRIF-ATM assay). […] Thus, the pyrimidinedione unit serves as a good structural replacement for the 2-imino and 2-thioxo thiazolidin-4-one units.
# [2] = system: ATMs1981 autophosphorylation in AT153LA cells (TGA); assay: Flow cytometry ATMs1981 autophosphorylation (FC-ATM) in AT153LA cells; assay type: cell-based, human; parameters: FC-ATM (Delta-FI, 30 μM): unit not given here; details: for FCATMs1981: summary of positive results; as to FCATMs1981: key: the positive results on various assays are also summarized and labeled as '+'
# Experimental: FC-SMC1 assay was performed as recently described (Nahas et al., 2009). FC-ATM-Ser1981 assay was based on Honda's assay (Honda et al., 2009, Leukemia. 23:409-414) with modifications. In brief, cells were resuspended in PBS and radiated for 10 Gy. After 1 h, the cells were fixed and permeabilized using the FIX & PERM cell permeabilization kit (Invitrogen). The cells were then incubated with 1 μl of mouse ATM-Ser1981 antibody (Cell Signaling Technology) for 2 h at room temperature. Cells were washed and resuspended in 100 μl PBS with Alexa Fluor 488 anti-mouse IgG (Invitrogen) for 45 min. Cells were next washed and resuspended in PBS with 0.2% paraformaldehyde and analyzed using a FACSCalibur (BD).
# Studies on readthrough activity of RTC#13 derivatives as measured by FC-ATMS 1981 were performed according to the procedures provided in Example 1.
# These two series, 7 and 9, were tested for readthrough activity using an assay in which the ATM protein kinase activity was measured using a flow cytometry-based ATMs1981 autophosphorylation assay (FC-ATM) (Nahas, S. A; et al., Clin. Chem. 2009, 55, 463-72). […] An increased Delta-FI indicates the restoration of ATM kinase activity by a compound.
# as §1
# [3] = Table 4, compounds 13 and 15, 30 μM
# [4] = Table 2, compounds 7, 30 µM, change in fluorescence intensity before and after ionizing radiation
SMILES,IRIF-ATM (%) (30 μM) [1],"FC-ATM (Delta-FI, 30 μM) [2, 3]",FCATMs1981 [2],"FC-ATM (Delta-FI, 30 μM) ([2]; Table 3, compounds 9, 30 μM)",other results
"O=c1ccn(Cc2ccc(-c3cccc(Cl)c3)o2)c(=O)[nH]1 [Compound 13i, 1-((5-(3-chlorophenyl)furan-2-yl)methyl)pyrimidine-2,4(1H,3H)-dione]",11.33%,5.07,+,–,"IR-induced ATMs1981 foci formation, readthrough activity [1]: statistically significant readthrough activity"
"O=c1ccn(Cc2ccc(-c3ccccc3)o2)c(=O)[nH]1 [Compound 13e, 1-((5-phenylfuran-2-yl)methyl)pyrimidine-2,4(1H,3H)-dione]",9.4%,3.42,+,–,"IR-induced ATMs1981 foci formation, readthrough activity [1]: statistically significant readthrough activity; IRIF (ATMs1981) [1]: +"
"O=C1NC(=S)S/C1=C\c1ccc(-c2ccccc2C(F)(F)F)o1 [Compound 7k, (Z)-2-thioxo-5-((5-(2-(trifluoromethyl)phenyl)furan-2-yl)methylene)thiazolidin-4-one]",–,–,–,–,"FC-ATM (Delta-FI, 30 μM) [2, 4]: negative"
N=c1[nH]c(=O)n(Cc2ccc(-c3ccccc3[N+](=O)[O-])o2)cc1F [Compound 15b],negative,negative,–,–,–
"O=C1NC(=S)S/C1=C\c1cc2ccccc2[nH]1 [Compound 9h, (Z)-5-((1H-indol-2-yl)methylene)-2-thioxothiazolidin-4-one]",–,–,–,negative,–
"Cc1cn(Cc2ccc(-c3ccccc3F)o2)c(=O)[nH]c1=O [Compound 13h, 1-((5-(2-fluorophenyl)furan-2-yl)methyl)-5-methylpyrimidine-2,4(1H,3H)-dione]",9.6%,6.16,+,–,"IR-induced ATMs1981 foci formation, readthrough activity [1]: statistically significant readthrough activity; IRIF (ATMs1981) [1]: +"
"Cc1cn(Cc2ccc(-c3ccccc3)o2)c(=O)[nH]c1=O [Compound 13f, 5-methyl-1-((5-phenylfuran-2-yl)methyl)pyrimidine-2,4(1H,3H)-dione]",22.75%,3.80,+,–,"IR-induced ATMs1981 foci formation, readthrough activity [1]: statistically significant readthrough activity; IRIF (ATMs1981) [1]: +"
"O=Cc1cn(Cc2ccc(-c3ccccc3[N+](=O)[O-])o2)c(=O)[nH]c1=O [Compound 13d, 1-((5-(2-nitrophenyl)furan-2-yl)methyl)-2,4-dioxo-1,2,3,4-tetrahydropyrimidine-5-carbaldehyde]",16.0%,2.24,+,–,"IR-induced ATMs1981 foci formation, readthrough activity [1]: statistically significant readthrough activity; IRIF (ATMs1981) [1]: +"
"N=C1NC(=O)/C(=C/c2c[nH]c3ccccc23)S1 [Compound 9c, (Z)-5-((1H-indol-3-yl)methylene)-2-iminothiazolidin-4-one]",–,–,–,negative,–
"N=C1NC(=O)/C(=C/c2cc3ccccc3[nH]2)S1 [Compound 9b, (Z)-5-((1H-indol-2-yl)methylene)-2-iminothiazolidin-4-one]",–,–,–,negative,–
"O=C1NC(=S)S/C1=C\c1ccc(-c2cccc(Cl)c2)o1 [Compound 7p, (Z)-5-((5-(3-chlorophenyl)furan-2-yl)methylene)-2-thioxothiazolidin-4-one]",–,–,+,–,"FC-ATM (Delta-FI, 30 μM) [2, 4]: 2.86"
"CN1C(=N)S/C(=C\c2ccc(-c3ccccc3[N+](=O)[O-])o2)C1=O [Compound 7c, (Z)-2-imino-3-methyl-5-((5-(2-nitrophenyl)furan-2-yl)methylene)thiazolidin-4-one]",–,–,–,–,"FC-ATM (Delta-FI, 30 μM) [2, 4]: negative"
"N=C1NC(=O)/C(=C/c2cn(Cc3ccc(-c4ccccc4[N+](=O)[O-])o3)c(=O)[nH]c2=O)S1 [Compound 13j, (Z)-5-((2-imino-4-oxothiazolidin-5-ylidene)methyl)-1-((5-(2-nitrophenyl)furan-2-yl)methyl)pyrimidine-2,4(1H,3H)-dione]",18%,2.42,+,–,"IR-induced ATMs1981 foci formation, readthrough activity [1]: statistically significant readthrough activity; IRIF (ATMs1981) [1]: +"
"COc1ccccc1-c1ccc(/C=C2\SC(=S)NC2=O)o1 [Compound 7l, (Z)-5-((5-(2-methoxyphenyl)furan-2-yl)methylene)-2-thioxothiazolidin-4-one]",–,–,–,–,"FC-ATM (Delta-FI, 30 μM) [2, 4]: negative"
"N=C1NC(=O)/C(=C/c2ccc(-c3ccccc3F)o2)S1 [Compound 7g, (Z)-5-((5-(2-fluorophenyl)furan-2-yl)methylene)-2-iminothiazolidin-4-one]",–,–,–,–,"FC-ATM (Delta-FI, 30 μM) [2, 4]: negative"
"O=c1ccn(Cc2ccc(-c3ccccc3F)o2)c(=O)[nH]1 [Compound 13g, 1-((5-(2-fluorophenyl)furan-2-yl)methyl)pyrimidine-2,4(1H,3H)-dione]",20%,5.43,+,–,"IR-induced ATMs1981 foci formation, readthrough activity [1]: all RTC#13 derivatives show statistically significant readthrough activity except for Derivative 13g"
Cc1cn(Cc2ccc(-c3ccccc3[N+](=O)[O-])o2)c(=O)[nH]c1=O [Compound 13c],negative,negative,–,–,–
"N=c1ccn(Cc2ccc(-c3ccccc3[N+](=O)[O-])o2)c(=O)[nH]1 [Compound 15a, 4-imino-1-((5-(2-nitrophenyl)furan-2-yl)methyl)-3,4-dihydropyrimidin-2(1H)-one]",negative,negative,–,–,–
"COc1cccc(-c2ccc(/C=C3\SC(=N)NC3=O)o2)c1 [Compound 7h, (Z)-2-imino-5-((5-(3-methoxyphenyl)furan-2-yl)methylene)thiazolidin-4-one]",–,–,+,–,"FC-ATM (Delta-FI, 30 μM) [2, 4]: 1.90"
"O=C1NC(=S)S/C1=C\c1ccc(-c2ccccn2)o1 [Compound 9j, (Z)-5-((5-(pyridin-2-yl)furan-2-yl)methylene)-2-thioxothiazolidin-4-one]",–,–,–,negative,–
"O=C1NC(=S)S/C1=C\c1c[nH]c2ccccc12 [Compound 9i, (Z)-5-((1H-indol-3-yl)methylene)-2-thioxothiazolidin-4-one]",–,–,–,negative,–
"N=C1NC(=O)/C(=C/c2cc3ccccc3o2)S1 [Compound 9a, (Z)-5-(benzofuran-2-ylmethylene)-2-iminothiazolidin-4-one]",–,–,–,negative,–
"N=C1NC(=O)/C(=C/c2ccc(-c3ccccc3)s2)S1 [Compound 9e, (Z)-2-imino-5-((5-phenylthiophen-2-yl)methylene)thiazolidin-4-one]",–,–,–,negative,–
"O=C1NC(=S)S/C1=C\c1cc2ccccc2o1 [Compound 9g, (Z)-5-(benzofuran-2-ylmethylene)-2-thioxothiazolidin-4-one]",–,–,+,3.50,FC-ATM readthrough activity [2]: positive results
"N=C1NC(=O)/C(=C/c2ccc(-c3cccc(Cl)c3)o2)S1 [Compound 7i, (Z)-5-((5-(3-chlorophenyl)furan-2-yl)methylene)-2-iminothiazolidin-4-one]",–,–,+,–,"FC-ATM (Delta-FI, 30 μM) [2, 4]: 2.27"
"N=C1NC(=O)/C(=C/c2ccc(-c3ccccn3)o2)S1 [Compound 9d, (Z)-2-imino-5-((5-(pyridin-2-yl)furan-2-yl)methylene)thiazolidin-4-one]",–,–,–,negative,–
"N=C1NC(=O)/C(=C/c2ccco2)S1 [Compound 9f, (Z)-5-(furan-2-ylmethylene)-2-iminothiazolidin-4-one]",–,–,–,negative,–
COc1cccc(-c2ccc(/C=C3\SC(=S)NC3=O)o2)c1 [Compound 7o],–,–,+,–,"FC-ATM (Delta-FI, 30 μM) [2, 4]: 2.66"
